In US20050175544A1, “Albuterol inhalation solution, system, kit and method for relieving symptoms of pediatric asthma” (Dey LP, priority 2001, published 2005):
Structures can show the parent of a compound that is named as a salt.

Tested on: children ages 6 to 12 with asthma
Experiment: 4-week randomized placebo-controlled trial of nebulized albuterol solution, efficacy by FEV1
Format: in vivo
Settings: both unit doses; initial dose (Day 1) and after 4 weeks of treatment (Day 28)
Experimental: Patients were randomized to receive a nebulizer solution comprising either 0.63 mg/3 ml or 1.25 mg/3 ml of albuterol sulfate, or a placebo. The inhalation solution was administered via a Pari LC Plus™ nebulizer and a Pari PRONEB™ compressor. […] In this study, qualifying children ages 6 to 12 were randomized to receive 1 of the following three treatments twice daily (TD) for 4 weeks, each in 3.0 mL volume: (1) 1.25 mg albuterol sulfate inhalation solution; (2) 9.63 mg albuterol sulfate inhalation solution; or (3) placebo (saline). Each patient was provided with a personal compressor-driven PARI LC PLUS™ nebulizer, by Pari Respirator Equipment, Inc., Richmond, Va., for the duration of the study. […] The 4-week study period began with the initial dose, to be taken in the morning, administered at the study site. Pre-dose pulmonary function tests and pulmonary function tests 30 minutes after the end of nebulization and hourly thereafter for 6 hours were performed. After 11 days, patients returned for exchange of study medication and diaries and pulmonary function tests before and 30 minutes after the morning dosing. […] The safety profiles of each unit dose and placebo were determined by collecting vital signs (heart rate, blood pressure, respiration rate, and body temperature) as well as electrocardiograms. […]

CC(C)(C)NCC(O)c1ccc(O)c(CO)c1 (stereo not drawn) [albuterol, α^1-[(tert-butylamino)methyl]-4-hydroxy-m-xylene-α,α′-diol sulfate (2:1)(salt)]
Improvement in FEV1 compared to placebo (area under percent change from pre-dose FEV1 versus time curve): significant improvement
